Test results from ChEMBL document CHEMBL3885861, “Open TG-GATES”.

Organism: Rattus norvegicus
Experiment: Open TG-GATES - Regimen: Single
Type: toxicity, organism-based, Sprague-Dawley
Set-up: regimen Single, gender Male, age 6 weeks
Details: in vivo, po, 2000 mg/kg, route gavage, dose level High; for APTT / Bas / Eos / Fbg / Hb / Ht / Lym / MCH / MCHC / MCV / Mono / Neu / PT / Plat / RBC / Ret / WBC: tissue Blood; for KIDNEY_L / KIDNEY_R / KIDNEY_TOTAL: tissue Kidney; for LIVER: tissue Liver; for A/G / ALP / ALT / AST / BUN / CRE / Ca / Cl / DBIL / GLC / IP / K / LDH / Na / PL / RALB / TBIL / TC / TG / TP / gamma-GTP: tissue Plasma

`CCN1CCCC1CNC(=O)c1cc(S(N)(=O)=O)ccc1OC` (stereo unspecified) [SULPIRIDE] was tested, and the TERMINAL_BW (9 h) was 199.2 g, the APTT (9 h) was 19.7 s and the Bas (9 h) was 0%. For the same molecule, the Eos (9 h) was 1%, the Fbg (9 h) was 296.6 mg/dL and the Hb (9 h) was 13.3 g/dL. For the same molecule, the Ht (9 h) was 41.7%, the Lym (9 h) was 79.6% and the MCH (9 h) was 20.1 pg. It also gave an MCHC (9 h) of 32%, an MCV (9 h) of 62.9 fL and a Mono (9 h) of 2.2%. The Neu (9 h) was 16.6%, the PT (9 h) was 13.2 s and the Plat (9 h) was 117.3 x10_4/uL. It also gave an RBC (9 h) of 663.8 x10_4/ul, a Ret (9 h) of 7.5% and a WBC (9 h) of 63.8 x10_2/uL. For the same molecule, the KIDNEY_L (9 h) was 0.9 g, the KIDNEY_R (9 h) was 0.9 g and the KIDNEY_TOTAL (9 h) was 1.8 g. The LIVER (9 h) was 7.5 g, the A/G (9 h) was 0.9 and the ALP (9 h) was 1349.6 IU/L. For the same molecule, the ALT (9 h) was 30.8 IU/L, the AST (9 h) was 67.4 IU/L and the BUN (9 h) was 7.4 mg/dL. The CRE (9 h) was 0.1 mg/dL, the Ca (9 h) was 10.5 mg/dL and the Cl (9 h) was 108.4 meq/L. The DBIL (9 h) was 0.008 mg/dL, the GLC (9 h) was 165.6 mg/dL and the IP (9 h) was 10.1 mg/dL. For the same molecule, the K (9 h) was 4.3 meq/L, the LDH (9 h) was 88.2 IU/L and the Na (9 h) was 142 meq/L. The PL (9 h) was 133.8 mg/dL, the RALB (9 h) was 2.5 g/dL and the TBIL (9 h) was 0.076 mg/dL. For the same molecule, the TC (9 h) was 73 mg/dL, the TG (9 h) was 29 mg/dL and the TP (9 h) was 5.3 g/dL. The gamma-GTP (9 h) was 1.6 IU/L, the TERMINAL_BW (24 h) was 209.1 g and the APTT (24 h) was 16.6 s. For the same molecule, the Bas (24 h) was 0.2%, the Eos (24 h) was 0.8% and the Fbg (24 h) was 301.4 mg/dL. The Hb (24 h) was 13.8 g/dL, the Ht (24 h) was 42.8% and the Lym (24 h) was 79.2%. It also gave an MCH (24 h) of 20.4 pg, an MCHC (24 h) of 32.3% and an MCV (24 h) of 63.2 fL. The Mono (24 h) was 3.6%, the Neu (24 h) was 15.4% and the PT (24 h) was 12.7 s. It also gave a Plat (24 h) of 120.6 x10_4/uL, an RBC (24 h) of 678.6 x10_4/ul and a Ret (24 h) of 7%. The WBC (24 h) was 97.3 x10_2/uL, the KIDNEY_L (24 h) was 0.9 g and the KIDNEY_R (24 h) was 0.9 g. The KIDNEY_TOTAL (24 h) was 1.9 g, the LIVER (24 h) was 9 g and the A/G (24 h) was 0.9. For the same molecule, the ALP (24 h) was 1595.2 IU/L, the ALT (24 h) was 40.6 IU/L and the AST (24 h) was 64.8 IU/L. It also gave a BUN (24 h) of 17.4 mg/dL, a CRE (24 h) of 0.2 mg/dL and a Ca (24 h) of 11.3 mg/dL. The Cl (24 h) was 103.8 meq/L, the DBIL (24 h) was 0.012 mg/dL and the GLC (24 h) was 179.8 mg/dL. The IP (24 h) was 9.3 mg/dL, the K (24 h) was 4.8 meq/L and the LDH (24 h) was 101 IU/L. The Na (24 h) was 141.4 meq/L, the PL (24 h) was 149.8 mg/dL and the RALB (24 h) was 2.7 g/dL. The TBIL (24 h) was 0.064 mg/dL, the TC (24 h) was 86.2 mg/dL and the TG (24 h) was 77 mg/dL. The TP (24 h) was 5.7 g/dL and the gamma-GTP (24 h) was 1 IU/L.
